In the supplement of paper PMC11451515:

Columns and labels:
Details in all cases: 48 h
SEM cells [1] = test: cell viability relative to DMSO control; higher = less cytotoxic
Outline: (§1)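 Cells were incubated for 48 h at 37°C before CellTiter-Glo One luminescence was read. The cells were NOMO1 or SEM (500 cells/well) or P12-Ichikawa (1000 cells/well) leukemia cells, adapted for at least four passages in each medium and seeded in 1536-well plates (5 μl). Dosing used library compounds in DMSO applied by pin over 11 threefold points, 47 μM to 0.79 nM. Viability is the per-plate percentage of DMSO wells, with cell-free wells as background.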

NOMO1 [2] = test: as above
Outline: as §1

P12-Ichikawa [3] = test: as above
Outline: as §1

SEM cells [4] = test: AUC of viability dose-response curve (% viability x log10 dose units); higher = less sensitive
Outline: (§2)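 Leukemia cells adapted to each medium were seeded in 1536-well plates (500 or 1000 cells/well). They were dosed with library compounds in DMSO at 11 threefold doses, 47 μM to 0.79 nM, for 48 h at 37°C. CellTiter-Glo One luminescence was normalised per plate to DMSO and cell-free wells. Area under the curve was integrated by trapezoidal rule over log10 doses on a four-parameter log-logistic fit; curves exceeding full viability were scaled and curves failing quality control removed.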

NOMO1 [5] = test: as above
Outline: as §2

P12-Ichikawa [6] = test: as above
Outline: as §2

CN(C(Cc1ccc(O[S+](=O)([O-])c2cccc3cnccc23)cc1)C(=O)N1CCN(c2ccccc2)CC1)[S+](=O)([O-])c1cccc2cnccc12 (stereo unspecified)
cell viability [%]
Details	NOMO1 [2]	P12-Ichikawa [3]	SEM cells [1]
HPLM + 10% dialyzed FBS, 0.000781 µM	127	102	102
HPLM + 10% dialyzed FBS, 0.00234 µM	98.3	103	110
HPLM + 10% dialyzed FBS, 0.00702 µM	109	106	112
HPLM + 10% dialyzed FBS, 0.0211 µM	113	110	105
HPLM + 10% dialyzed FBS, 0.0632 µM	103	114	110
HPLM + 10% dialyzed FBS, 0.19 µM	120	105	108
HPLM + 10% dialyzed FBS, 0.569 µM	132	114	114
HPLM + 10% dialyzed FBS, 1.71 µM	95.2	102	95.3
HPLM + 10% dialyzed FBS, 5.12 µM	105	93.1	94.6
HPLM + 10% dialyzed FBS, 15.4 µM	77	89.2	74.2
HPLM + 10% dialyzed FBS, 46.1 µM	48.4	70.5	39.1
RPMI 5 mM glucose + 10% FBS, 0.000781 µM	93.8	107	120
RPMI 5 mM glucose + 10% FBS, 0.00234 µM	81.5	110	110
RPMI 5 mM glucose + 10% FBS, 0.00702 µM	95.8	109	108
RPMI 5 mM glucose + 10% FBS, 0.0211 µM	101	106	109
RPMI 5 mM glucose + 10% FBS, 0.0632 µM	93.8	108	108
RPMI 5 mM glucose + 10% FBS, 0.19 µM	86.3	103	99.7
RPMI 5 mM glucose + 10% FBS, 0.569 µM	95.2	103	108
RPMI 5 mM glucose + 10% FBS, 1.71 µM	82.6	97.7	96.9
RPMI 5 mM glucose + 10% FBS, 5.12 µM	91.4	90.6	95
RPMI 5 mM glucose + 10% FBS, 15.4 µM	82.5	71.8	46.2
RPMI 5 mM glucose + 10% FBS, 46.1 µM	66.3	57.3	22.9
RPMI 5 mM glucose + 10% dialyzed FBS, 0.000781 µM	82.5	104	110
RPMI 5 mM glucose + 10% dialyzed FBS, 0.00234 µM	97.7	108	120
RPMI 5 mM glucose + 10% dialyzed FBS, 0.00702 µM	99.8	105	100
RPMI 5 mM glucose + 10% dialyzed FBS, 0.0211 µM	94.5	121	119
RPMI 5 mM glucose + 10% dialyzed FBS, 0.0632 µM	89.2	109	114
RPMI 5 mM glucose + 10% dialyzed FBS, 0.19 µM	101	105	120
RPMI 5 mM glucose + 10% dialyzed FBS, 0.569 µM	93.9	113	114
RPMI 5 mM glucose + 10% dialyzed FBS, 1.71 µM	98.4	97.8	110
RPMI 5 mM glucose + 10% dialyzed FBS, 5.12 µM	93.8	102	90.3
RPMI 5 mM glucose + 10% dialyzed FBS, 15.4 µM	81.6	84.8	67.1
RPMI 5 mM glucose + 10% dialyzed FBS, 46.1 µM	56.1	58.7	34.5

AUC of viability dose-response curve
Details	NOMO1 [5]	P12-Ichikawa [6]	SEM cells [4]
HPLM + 10% dialyzed FBS	442	452	436
RPMI 5 mM glucose + 10% FBS	425	434	424
RPMI 5 mM glucose + 10% dialyzed FBS	436	450	428

CC(C)c1c(C(=O)Nc2ccccc2)c(-c2ccccc2)c(-c2ccc(F)cc2)n1CC[C@@H](O)C[C@@H](O)CC(=O)[O-]
cell viability [%]
Details	NOMO1 [2]	P12-Ichikawa [3]	SEM cells [1]
HPLM + 10% dialyzed FBS, 0.000781 µM	109	101	108
HPLM + 10% dialyzed FBS, 0.00234 µM	108	102	117
HPLM + 10% dialyzed FBS, 0.00702 µM	118	106	103
HPLM + 10% dialyzed FBS, 0.0211 µM	112	99.4	113
HPLM + 10% dialyzed FBS, 0.0632 µM	94.4	98.6	112
HPLM + 10% dialyzed FBS, 0.19 µM	97.4	97.4	102
HPLM + 10% dialyzed FBS, 0.569 µM	100	106	93.2
HPLM + 10% dialyzed FBS, 1.71 µM	97.2	91.2	104
HPLM + 10% dialyzed FBS, 5.12 µM	88.4	85.7	99.8
HPLM + 10% dialyzed FBS, 15.4 µM	75.6	85.2	75
HPLM + 10% dialyzed FBS, 46.1 µM	52.4	47.2	69.9
RPMI 5 mM glucose + 10% FBS, 0.000781 µM	96.4	97.5	81.9
RPMI 5 mM glucose + 10% FBS, 0.00234 µM	91.3	92.6	92.3
RPMI 5 mM glucose + 10% FBS, 0.00702 µM	94.6	99.6	110
RPMI 5 mM glucose + 10% FBS, 0.0211 µM	90.8	94.7	120
RPMI 5 mM glucose + 10% FBS, 0.0632 µM	88.2	97.1	103
RPMI 5 mM glucose + 10% FBS, 0.19 µM	116	87.9	86.3
RPMI 5 mM glucose + 10% FBS, 0.569 µM	97.6	93.3	98.3
RPMI 5 mM glucose + 10% FBS, 1.71 µM	80.1	87.6	97
RPMI 5 mM glucose + 10% FBS, 5.12 µM	83.7	68.4	88.6
RPMI 5 mM glucose + 10% FBS, 15.4 µM	83.5	56.3	70
RPMI 5 mM glucose + 10% FBS, 46.1 µM	61.5	23.2	45.1
RPMI 5 mM glucose + 10% dialyzed FBS, 0.000781 µM	90.4	97.4	99.6
RPMI 5 mM glucose + 10% dialyzed FBS, 0.00234 µM	100	91.9	109
RPMI 5 mM glucose + 10% dialyzed FBS, 0.00702 µM	90.9	91.2	104
RPMI 5 mM glucose + 10% dialyzed FBS, 0.0211 µM	89.6	92	106
RPMI 5 mM glucose + 10% dialyzed FBS, 0.0632 µM	102	95.7	93.4
RPMI 5 mM glucose + 10% dialyzed FBS, 0.19 µM	103	90.5	68.5
RPMI 5 mM glucose + 10% dialyzed FBS, 0.569 µM	92.2	89.5	104
RPMI 5 mM glucose + 10% dialyzed FBS, 1.71 µM	77.9	83.8	97.8
RPMI 5 mM glucose + 10% dialyzed FBS, 5.12 µM	73.9	85.1	93.3
RPMI 5 mM glucose + 10% dialyzed FBS, 15.4 µM	67.3	67.6	80
RPMI 5 mM glucose + 10% dialyzed FBS, 46.1 µM	48.4	36.3	60.9

AUC of viability dose-response curve
Details	NOMO1 [5]	P12-Ichikawa [6]	SEM cells [4]
HPLM + 10% dialyzed FBS	428	448	440
RPMI 5 mM glucose + 10% FBS	431	400	439
RPMI 5 mM glucose + 10% dialyzed FBS	412	409	447
